# Source: patent US20040023994A1 (priority 2002, published 2004)
# Read-outs that look alike come from different tables or passages of the source.
# How the values were obtained:
# CNS cell lines [1] = test: cells; conditions: Homo sapiens
# Prostate cell lines [2] = tested on: Prostate cell lines
# NSCL cell lines [3] = tested on: NSCL cell lines
# Renal cell lines [4] = tested on: Renal cell lines
# Colon cell lines [5] = test: cells
# [6] = tested on: all the cell lines included in the screen; test: cells; conditions: for GI50: read-out: median GI50; for CC50: read-out: median LC50
# Method: cis-AVTP and trans-AVTG were tested in National Cancer Institute's (NCI) 60 cell lines derived from leukemia, melanoma, lung, kidney cancers. Most chemotherapeutic agents currently nd 6-TG, have been tested in this screen and a database he National Institutes of Health. The NCI assigned s-AVTP, and number NSC-722289 to trans-AVTG. tocol used for the cytotoxicity assessment in the NCI e from the National Institutes of Health. Briefly, tumor ma, lung, colon, brain, ovary, breast, prostate, and um containing 5% fetal bovine serum and 2 mM L-glutamine re plated in a 100 μL volume into 96 well microtiter 37° C. in humidified atmosphere supplemented with 5% ach cell line were fixed with trichloroacetic acid for f drug addition (Tz). The drugs, as 400-fold concentrated uted to twice the final maximum test concentration with entamicin. Additional four 10-fold dilutions were made us control. Aliquots (100 μl) of the drug solutions were 100 μl of medium, resulting in the required final drug the plates were incubated at 37° C. in humidified for additional 48 h. The assay was terminated by the w/v) trichloroacetic acid for adherent and suspension minutes at 4° C. The supernatant was discarded, the and air dried. A 100 μl aliquot of 0.4% (w/v) sulforhodamine B (SRB) solution in 1% acetic acid was added to each well, and the plates incubated for 10 minutes at room temperature. After staining, unbound dye was removed by washing five times with 1% acetic acid and the plates air dried. Bound stain was solubilized with 10 mM trizma base, and the absorbance read on a plate reader at a wavelength of 515 nm.
# By using time zero (Tz), control growth (C), and test growth in the presence of drug at the five concentration levels (Ti), the percentage growth was calculated at each of the drug concentration levels. Percentage growth inhibition was calculated as:
# [(Ti−Tz)/(C−Tz)]×100 for concentrations for which Ti>/=Tz
# [(Ti−Tz)/Tz]×100 for concentrations for which Ti<Tz.
# Three dose response parameters were calculated for each experimental agent. […] The TGI, the drug concentration resulting in total growth inhibition was calculated from Ti=Tz. The LC50 (the concentration of drug resulting in a 50% reduction in the measured protein at the end of the drug treatment as compared to that at the beginning) indicating a net loss of cells following treatment was calculated from [(Ti−Tz)/Tz]×100=−50. Values were calculated for each of these three parameters if the level of activity is reached; however, if the effect was not reached or was exceeded, the value for that parameter is expressed as greater or less than the maximum or minimum concentration tested.
# Prostate cell lines [7] = test: cells
# A-498 cells = test: MTT cytotoxicity assay; format: cell-based, human
# Method: (§1) Preliminary studies examining the in vitro cytotoxicity of cis-AVTP and trans-AVTG as compared to the parent drugs, were carried out using the 3-[4,5-dimethylthiazol-2-yl]-2,5-diphenyl tetrazolium bromide (MTT) cytotoxicity assay.
# ACHN cells = test: MTT cytotoxicity assay; format: cell-based, human
# Method: as §1
# Melanoma cell lines [8] = tested on: Melanoma cell lines
# SF-268 = conditions: SF-268, CNS, NCI database, cited from earlier work
# CNS cell lines [9] = tested on: CNS cell lines
# Renal cell lines [10] = test: cells
# Breast cell lines [11] = tested on: Breast cell lines
# Leukemia cell lines [12] = conditions: Leukemia
# Colon cell lines [13] = tested on: Colon cell lines
# NSCL cell lines [14] = test: cells
# Breast cell lines [15] = test: cells
# Leukemia cell lines [16] = test: cells
# Melanoma cell lines [17] = test: cells
# Ovarian cell lines = test: NCI anticancer screen, by tissue type; conditions: for GI50: read-out: median GI50; for CC50: read-out: median LC50
# HCT-116 = conditions: HCT-116, Colon, NCI database, cited from earlier work
# SN12C = format: cell-based; conditions: Renal, 48 h
# [18] = all cell lines of the NCI screen
# [19] = read-out: LC50 (the source's name)
smiles,measurement,setting,value
"Sc1ncnc2nc[nH]c12 [6-MP, 6-mercaptopurine]",GI50,CNS cell lines [1]; read-out: median GI50,6.64 µM
same,CC50,CNS cell lines [1]; read-out: median LC50,> 100 µM
same,median TGI,Prostate cell lines [2],>100 µM
same,median TGI,NSCL cell lines [3],>100 µM
same,median TGI,Renal cell lines [4],>100 µM
same,GI50,Colon cell lines [5]; read-out: median GI50,4.53 µM
same,CC50,Colon cell lines [5]; read-out: median LC50,> 100 µM
same,median TGI,[6]; [18],>100 µM
same,GI50,[6],3.97 µM
same,CC50,[6],> 100 µM
same,GI50,Prostate cell lines [7]; read-out: median GI50,2.77 µM
same,CC50,Prostate cell lines [7]; read-out: median LC50,> 100 µM
same,IC50,"A-498 cells; Homo sapiens, A498, A-498, 72 h incubation, MTT",60.6 ± 25.5 µM
same,IC50,"A-498 cells; Homo sapiens, A498, A-498, 96 h drug incubation",14.9 ± 6.7 µM
same,IC50,"ACHN cells; Homo sapiens, 48 h drug incubation",44.8 ± 5 µM
same,IC50,"ACHN cells; Homo sapiens, 72 h incubation, MTT",6.3 ± 1.9 µM
same,IC50,"ACHN cells; Homo sapiens, 96 h drug incubation",0.9 ± 0.3 µM
same,median TGI,Melanoma cell lines [8],>100 µM
same,GI50,SF-268,4.03 µM
same,TGI,SF-268,>100 µM
same,CC50,SF-268; [19],> 100 µM
same,median TGI,CNS cell lines [9],>100 µM
same,GI50,Renal cell lines [10]; read-out: median GI50,4.33 µM
same,CC50,Renal cell lines [10]; read-out: median LC50,> 100 µM
same,median TGI,Breast cell lines [11],>100 µM
same,median TGI,Leukemia cell lines [12],>100 µM
same,median TGI,Colon cell lines [13],>100 µM
same,GI50,NSCL cell lines [14]; read-out: median GI50,3.74 µM
same,CC50,NSCL cell lines [14]; read-out: median LC50,> 100 µM
same,GI50,Breast cell lines [15]; read-out: median GI50,9.42 µM
same,CC50,Breast cell lines [15]; read-out: median LC50,> 100 µM
same,GI50,Leukemia cell lines [16]; read-out: median GI50,1.39 µM
same,CC50,Leukemia cell lines [16]; read-out: median LC50,> 100 µM
same,GI50,Melanoma cell lines [17]; read-out: median GI50,5.04 µM
same,CC50,Melanoma cell lines [17]; read-out: median LC50,> 100 µM
same,median TGI,Ovarian cell lines; Ovarian,>100 µM
same,GI50,Ovarian cell lines,4.77 µM
same,CC50,Ovarian cell lines,> 100 µM
same,TGI,HCT-116,>100 µM
same,CC50,HCT-116; [19],> 100 µM
"CC(=O)C=CSc1nc(N)nc2nc[nH]c12 [trans-AVTG, 6-(2-acetylvinylthio) guanine]",median TGI,Prostate cell lines [2],19.7 µM
same,GI50,Prostate cell lines [2]; read-out: median GI50,3.96 µM
same,CC50,Prostate cell lines [2]; read-out: median LC50,62.5 µM
same,median TGI,NSCL cell lines [3],19.4 µM
same,GI50,NSCL cell lines [3]; read-out: median GI50,2.52 µM
same,CC50,NSCL cell lines [3]; read-out: median LC50,61.5 µM
same,median TGI,Renal cell lines [4],14.3 µM
same,GI50,Renal cell lines [4]; read-out: median GI50,0.98 µM
same,CC50,Renal cell lines [4]; read-out: median LC50,52.8 µM
same,median TGI,[6]; [18],12.9 µM
same,GI50,[6]; [18],0.98 µM
same,CC50,[6]; [18],76.2 µM
same,IC50,"A-498 cells; A-498, 72 h incubation, MTT",9.7 ± 2 µM
same,IC50,"ACHN cells; 72 h incubation, MTT",4.1 ± 0.4 µM
same,median TGI,Melanoma cell lines [8],10.1 µM
same,GI50,Melanoma cell lines [8]; read-out: median GI50,0.73 µM
same,CC50,Melanoma cell lines [8]; read-out: median LC50,53.1 µM
same,median TGI,CNS cell lines [9],32.4 µM
same,GI50,CNS cell lines [9]; read-out: median GI50,3.68 µM
same,CC50,CNS cell lines [9]; read-out: median LC50,> 100 µM
same,GI50,SN12C,2.84 µM
same,TGI,SN12C,14.3 µM
same,median TGI,Breast cell lines [11],11.6 µM
same,GI50,Breast cell lines [11]; read-out: median GI50,0.97 µM
same,CC50,Breast cell lines [11]; read-out: median LC50,88.1 µM
same,median TGI,Leukemia cell lines [12],13.4 µM
same,GI50,Leukemia cell lines [12]; read-out: median GI50,0.37 µM
same,CC50,Leukemia cell lines [12]; read-out: median LC50,> 100 µM
same,median TGI,Colon cell lines [13],9.50 µM
same,GI50,Colon cell lines [13]; read-out: median GI50,1.43 µM
same,CC50,Colon cell lines [13]; read-out: median LC50,62.6 µM
same,median TGI,Ovarian cell lines; Ovarian,3.41 µM
same,GI50,Ovarian cell lines; Ovarian,0.39 µM
same,CC50,Ovarian cell lines; Ovarian,51.4 µM
